Literature values in patent EP0086468A2, “Oral anti-diabetic preparation” (HOECHST UK LIMITED, priority 1982, dated 1983).

Test system: plasma glucose
Conditions: intravenous bolus injection, published data

COc1ccc(Cl)cc1C(=O)NCCc1ccc(S(=O)(=O)NC(=O)NC2CCCCC2)cc1 [glibenclamide]
nadir in plasma glucose levels, time after injection: about 40 minutes
